System: influenza virus A/PR/8/34(H1N1)
Assay: ELISA inhibition of influenza virus binding to immobilised GM3
Conditions: 1 nmol GM3 per well, virus suspension 32 HAU, pre-incubated at 4° C. for two hours

CC(=O)N[C@H]1[C@H]([C@H](O)[C@H](O)CO)O[C@@](O[C@H]2[C@@H](O)[C@@H](CO)O[C@@H](O[C@H]3[C@H](O)[C@@H](O)C(O)O[C@@H]3CO)[C@@H]2O)(C(=O)O)C[C@@H]1O (stereo partly shown) [Sialyl lactose] was tested, and the IC50 per molecule was 1.5e-07 mol.

From patent US6358919B1 (priority 1997, dated 2002)
